Laboratory results published in US20250049738A1, “METHOD OF TREATMENT AND SELECTION OF PATIENTS BENEFITING FROM AGOMELATINE BASED ON EEG MEASUREMENTS” (Alto Neuroscience, Inc., priority 2023, published 2025).

Experiments:
[1] = tested on: unselected depression patients; conditions: monotherapy, meta-analytically calculated; cited from earlier work
sleep measures = conditions: cited from earlier work
[2] = tested on: patients with major depressive disorder; assay: Open-label trials of adjunctive agomelatine 25 mg at bedtime in MDD; baseline EEG models predicting change in MADRS; type: in vivo, human
[3] = tested on: performance on a trail making task; conditions: versus an SSRI; cited from earlier work
circadian rhythm = conditions: in vivo; cited from earlier work

COc1ccc2cccc(CCNC(C)=O)c2c1 [agomelatine, N-[2-(7-methoxynaphthalen-1-yl)ethyl]acetamide]
all-comer effect size d, treatment response to agomelatine versus placebo [1]: 0.26 | sleep measures assessed using actigraphic measurements (sleep measures; in contrast to an SSRI): improve sleep measures | deep to total sleep ratio (sleep measures; in vivo): increasing the deep to total sleep ratio | prediction of agomelatine outcome by relative power ([2]; EEG machine learning model): not predictive | prediction of agomelatine outcome by aperiodic exponent ([2]; EEG machine learning model, significant at week 4): also predictive | Cohen's d effect size, predicted responders vs predicted non-responders, change in MADRS ([2]; EEG sample entropy machine learning model, cross-validation left-out data of training dataset, all weeks, FIG. 2A): > 0.4 | Cohen's d, predicted agomelatine responders vs non-responders, observed change in MADRS ([2]; EEG sample entropy machine learning model, holdout dataset, weeks 4, 6 and 8, FIG. 2B): ≥ 0.4 | implied agomelatine-placebo difference, d ([2]; EEG-predicted non-responders (sample entropy model), full sample): −0.06 | implied agomelatine-placebo response, d ([2]; EEG-predicted responders (sample entropy model), week 8, full sample): 0.58 | implied agomelatine-placebo difference, d ([2]; Pz low gamma sample entropy alone, high entropy patients, full sample): 0.51 | implied agomelatine-placebo difference, d ([2]; Pz low gamma sample entropy alone, low entropy patients, full sample): 0.0 | d (Cohen's d, prediction of agomelatine outcome) ([2]; REC, Approximate Entropy, lower gamma, Week 1): 0.23 | d (Cohen's d, prediction of agomelatine outcome) ([2]; REC, Approximate Entropy, lower gamma, Week 2): 0.29 | d (Cohen's d, prediction of agomelatine outcome) ([2]; REC, Approximate Entropy, lower gamma, Week 4): 0.46 | d (Cohen's d, prediction of agomelatine outcome) ([2]; REC, Detrended Fluctuation Analysis, lower beta, Week 1): 0.49 | d (Cohen's d, prediction of agomelatine outcome) ([2]; REC, Detrended Fluctuation Analysis, lower beta, Week 2): 0.44 | d (Cohen's d, prediction of agomelatine outcome) ([2]; REC, Detrended Fluctuation Analysis, lower beta, Week 4): 0.41 | d (Cohen's d, prediction of agomelatine outcome) ([2]; REC, Detrended Fluctuation Analysis, upper beta, Week 1): 0.19 | d (Cohen's d, prediction of agomelatine outcome) ([2]; REC, Detrended Fluctuation Analysis, upper beta, Week 2): 0.20 | d (Cohen's d, prediction of agomelatine outcome) ([2]; REC, Detrended Fluctuation Analysis, upper beta, Week 4): 0.25 | d (Cohen's d, prediction of agomelatine outcome) ([2]; REC, Higuchi Fractal Dimension, lower beta, Week 1): 0.44 | d (Cohen's d, prediction of agomelatine outcome) ([2]; REC, Higuchi Fractal Dimension, lower beta, Week 2): 0.36 | d (Cohen's d, prediction of agomelatine outcome) ([2]; REC, Higuchi Fractal Dimension, lower beta, Week 4): 0.28 | d (Cohen's d, prediction of agomelatine outcome) ([2]; REC, Higuchi Fractal Dimension, lower gamma, Week 1): 0.64 | d (Cohen's d, prediction of agomelatine outcome) ([2]; REC, Higuchi Fractal Dimension, lower gamma, Week 2): 0.58 | d (Cohen's d, prediction of agomelatine outcome) ([2]; REC, Higuchi Fractal Dimension, lower gamma, Week 4): 0.57 | d (Cohen's d, prediction of agomelatine outcome) ([2]; REC, Higuchi Fractal Dimension, upper beta, Week 1): −0.29 | d (Cohen's d, prediction of agomelatine outcome) ([2]; REC, Higuchi Fractal Dimension, upper beta, Week 2): −0.20 | d (Cohen's d, prediction of agomelatine outcome) ([2]; REC, Higuchi Fractal Dimension, upper beta, Week 4): −0.05 | d (Cohen's d, prediction of agomelatine outcome) ([2]; REC, Higuchi Fractal Dimension, upper gamma, Week 1): 0.16 | d (Cohen's d, prediction of agomelatine outcome) ([2]; REC, Higuchi Fractal Dimension, upper gamma, Week 2): 0.16 | d (Cohen's d, prediction of agomelatine outcome) ([2]; REC, Higuchi Fractal Dimension, upper gamma, Week 4): 0.21 | d (Cohen's d, prediction of agomelatine outcome) ([2]; REC, Katz Fractal Dimension, lower beta, Week 1): 0.47 | d (Cohen's d, prediction of agomelatine outcome) ([2]; REC, Katz Fractal Dimension, lower beta, Week 2): 0.42 | d (Cohen's d, prediction of agomelatine outcome) ([2]; REC, Katz Fractal Dimension, lower beta, Week 4): 0.37 | d (Cohen's d, prediction of agomelatine outcome) ([2]; REC, Katz Fractal Dimension, lower gamma, Week 1): 0.25 | d (Cohen's d, prediction of agomelatine outcome) ([2]; REC, Katz Fractal Dimension, lower gamma, Week 2): 0.23 | d (Cohen's d, prediction of agomelatine outcome) ([2]; REC, Katz Fractal Dimension, lower gamma, Week 4): 0.23 | d (Cohen's d, prediction of agomelatine outcome) ([2]; REC, Katz Fractal Dimension, upper beta, Week 1): 0.42 | d (Cohen's d, prediction of agomelatine outcome) ([2]; REC, Katz Fractal Dimension, upper beta, Week 2): 0.40 | d (Cohen's d, prediction of agomelatine outcome) ([2]; REC, Katz Fractal Dimension, upper beta, Week 4): 0.42 | d (Cohen's d, prediction of agomelatine outcome) ([2]; REC, Katz Fractal Dimension, upper gamma, Week 1): 0.04 | d (Cohen's d, prediction of agomelatine outcome) ([2]; REC, Katz Fractal Dimension, upper gamma, Week 2): 0.10 | d (Cohen's d, prediction of agomelatine outcome) ([2]; REC, Katz Fractal Dimension, upper gamma, Week 4): 0.23 | d (Cohen's d, prediction of agomelatine outcome) ([2]; REC, Largest Lyapunov Exponent, upper alpha, Week 1): 0.10 | d (Cohen's d, prediction of agomelatine outcome) ([2]; REC, Largest Lyapunov Exponent, upper alpha, Week 2): 0.12 | d (Cohen's d, prediction of agomelatine outcome) ([2]; REC, Largest Lyapunov Exponent, upper alpha, Week 4): 0.18 | d (Cohen's d, prediction of agomelatine outcome) ([2]; REC, Largest Lyapunov Exponent, upper gamma, Week 1): −0.02 | d (Cohen's d, prediction of agomelatine outcome) ([2]; REC, Largest Lyapunov Exponent, upper gamma, Week 2): 0.08 | d (Cohen's d, prediction of agomelatine outcome) ([2]; REC, Largest Lyapunov Exponent, upper gamma, Week 4): 0.29 | d (Cohen's d, prediction of agomelatine outcome) ([2]; REC, Lempel-Ziv Complexity, lower gamma, Week 1): −0.06 | d (Cohen's d, prediction of agomelatine outcome) ([2]; REC, Lempel-Ziv Complexity, lower gamma, Week 2): 0.01 | d (Cohen's d, prediction of agomelatine outcome) ([2]; REC, Lempel-Ziv Complexity, lower gamma, Week 4): 0.15 | d (Cohen's d, prediction of agomelatine outcome) ([2]; REC, Lempel-Ziv Complexity, upper alpha, Week 1): 0.21 | d (Cohen's d, prediction of agomelatine outcome) ([2]; REC, Lempel-Ziv Complexity, upper alpha, Week 2): 0.17 | d (Cohen's d, prediction of agomelatine outcome) ([2]; REC, Lempel-Ziv Complexity, upper alpha, Week 4): 0.13 | d (Cohen's d, prediction of agomelatine outcome) ([2]; REC, Modified Multiscale Entropy, lower alpha, Week 1): 0.08 | d (Cohen's d, prediction of agomelatine outcome) ([2]; REC, Modified Multiscale Entropy, lower alpha, Week 2): 0.11 | d (Cohen's d, prediction of agomelatine outcome) ([2]; REC, Modified Multiscale Entropy, lower alpha, Week 4): 0.19 | d (Cohen's d, prediction of agomelatine outcome) ([2]; REC, Modified Multiscale Entropy, lower gamma, Week 1): −0.09 | d (Cohen's d, prediction of agomelatine outcome) ([2]; REC, Modified Multiscale Entropy, lower gamma, Week 2): 0.01 | d (Cohen's d, prediction of agomelatine outcome) ([2]; REC, Modified Multiscale Entropy, lower gamma, Week 4): 0.21 | d (Cohen's d, prediction of agomelatine outcome) ([2]; REC, Modified Multiscale Entropy, upper alpha, Week 1): 0.19 | d (Cohen's d, prediction of agomelatine outcome) ([2]; REC, Modified Multiscale Entropy, upper alpha, Week 2): 0.25 | d (Cohen's d, prediction of agomelatine outcome) ([2]; REC, Modified Multiscale Entropy, upper alpha, Week 4): 0.39 | d (Cohen's d, prediction of agomelatine outcome) ([2]; REC, Multiscale Entropy, upper alpha, Week 1): 0.05 | d (Cohen's d, prediction of agomelatine outcome) ([2]; REO, Approximate Entropy, lower gamma, Week 1): −0.15 | d (Cohen's d, prediction of agomelatine outcome) ([2]; REO, Approximate Entropy, lower gamma, Week 2): −0.05 | d (Cohen's d, prediction of agomelatine outcome) ([2]; REO, Approximate Entropy, lower gamma, Week 4): 0.09 | d (Cohen's d, prediction of agomelatine outcome) ([2]; REO, Detrended Fluctuation Analysis, upper gamma, Week 1): 0.37 | d (Cohen's d, prediction of agomelatine outcome) ([2]; REO, Detrended Fluctuation Analysis, upper gamma, Week 2): 0.33 | d (Cohen's d, prediction of agomelatine outcome) ([2]; REO, Detrended Fluctuation Analysis, upper gamma, Week 4): 0.32 | d (Cohen's d, prediction of agomelatine outcome) ([2]; REO, Higuchi Fractal Dimension, delta, Week 1): −0.15 | d (Cohen's d, prediction of agomelatine outcome) ([2]; REO, Higuchi Fractal Dimension, delta, Week 2): −0.05 | d (Cohen's d, prediction of agomelatine outcome) ([2]; REO, Higuchi Fractal Dimension, delta, Week 4): 0.12 | d (Cohen's d, prediction of agomelatine outcome) ([2]; REO, Higuchi Fractal Dimension, lower beta, Week 1): 0.03 | d (Cohen's d, prediction of agomelatine outcome) ([2]; REO, Higuchi Fractal Dimension, lower beta, Week 2): 0.03 | d (Cohen's d, prediction of agomelatine outcome) ([2]; REO, Higuchi Fractal Dimension, lower beta, Week 4): 0.05 | d (Cohen's d, prediction of agomelatine outcome) ([2]; REO, Higuchi Fractal Dimension, upper gamma, Week 1): 0.04 | d (Cohen's d, prediction of agomelatine outcome) ([2]; REO, Higuchi Fractal Dimension, upper gamma, Week 2): 0.06 | d (Cohen's d, prediction of agomelatine outcome) ([2]; REO, Higuchi Fractal Dimension, upper gamma, Week 4): 0.11 | d (Cohen's d, prediction of agomelatine outcome) ([2]; REO, Katz Fractal Dimension, delta, Week 1): 0.04 | d (Cohen's d, prediction of agomelatine outcome) ([2]; REO, Katz Fractal Dimension, delta, Week 2): 0.07 | d (Cohen's d, prediction of agomelatine outcome) ([2]; REO, Katz Fractal Dimension, delta, Week 4): 0.13 | d (Cohen's d, prediction of agomelatine outcome) ([2]; REO, Katz Fractal Dimension, lower beta, Week 1): 0.28 | d (Cohen's d, prediction of agomelatine outcome) ([2]; REO, Katz Fractal Dimension, lower beta, Week 2): 0.18 | d (Cohen's d, prediction of agomelatine outcome) ([2]; REO, Katz Fractal Dimension, lower beta, Week 4): 0.06 | d (Cohen's d, prediction of agomelatine outcome) ([2]; REO, Katz Fractal Dimension, upper beta, Week 1): 0.24 | d (Cohen's d, prediction of agomelatine outcome) ([2]; REO, Katz Fractal Dimension, upper beta, Week 2): 0.24 | d (Cohen's d, prediction of agomelatine outcome) ([2]; REO, Katz Fractal Dimension, upper beta, Week 4): 0.29 | d (Cohen's d, prediction of agomelatine outcome) ([2]; REO, Largest Lyapunov Exponent, upper alpha, Week 1): 0.03 | d (Cohen's d, prediction of agomelatine outcome) ([2]; REO, Largest Lyapunov Exponent, upper alpha, Week 2): 0.08 | d (Cohen's d, prediction of agomelatine outcome) ([2]; REO, Largest Lyapunov Exponent, upper alpha, Week 4): 0.17 | d (Cohen's d, prediction of agomelatine outcome) ([2]; REO, Largest Lyapunov Exponent, upper gamma, Week 1): −0.24 | d (Cohen's d, prediction of agomelatine outcome) ([2]; REO, Largest Lyapunov Exponent, upper gamma, Week 2): −0.11 | d (Cohen's d, prediction of agomelatine outcome) ([2]; REO, Largest Lyapunov Exponent, upper gamma, Week 4): 0.08 | d (Cohen's d, prediction of agomelatine outcome) ([2]; REO, Lempel-Ziv Complexity, lower gamma, Week 1): −0.24 | d (Cohen's d, prediction of agomelatine outcome) ([2]; REO, Lempel-Ziv Complexity, lower gamma, Week 2): −0.13 | d (Cohen's d, prediction of agomelatine outcome) ([2]; REO, Lempel-Ziv Complexity, lower gamma, Week 4): 0.02 | d (Cohen's d, prediction of agomelatine outcome) ([2]; REO, Lempel-Ziv Complexity, theta, Week 1): 0.13 | d (Cohen's d, prediction of agomelatine outcome) ([2]; REO, Lempel-Ziv Complexity, theta, Week 2): 0.14 | d (Cohen's d, prediction of agomelatine outcome) ([2]; REO, Lempel-Ziv Complexity, theta, Week 4): 0.17 | d (Cohen's d, prediction of agomelatine outcome) ([2]; REO, Lempel-Ziv Complexity, upper beta, Week 1): 0.19 | d (Cohen's d, prediction of agomelatine outcome) ([2]; REO, Lempel-Ziv Complexity, upper beta, Week 2): 0.21 | d (Cohen's d, prediction of agomelatine outcome) ([2]; REO, Lempel-Ziv Complexity, upper beta, Week 4): 0.30 | d (Cohen's d, prediction of agomelatine outcome) ([2]; REO, Modified Multiscale Entropy, upper beta, Week 1): 0.08 | d (Cohen's d, prediction of agomelatine outcome) ([2]; REO, Modified Multiscale Entropy, upper beta, Week 2): 0.15 | d (Cohen's d, prediction of agomelatine outcome) ([2]; REO, Modified Multiscale Entropy, upper beta, Week 4): 0.31 | d (Cohen's d, prediction of agomelatine outcome) ([2]; REO, Multiscale Entropy, lower gamma, Week 1): −0.41 | d (Cohen's d, prediction of agomelatine outcome) ([2]; REO, Multiscale Entropy, lower gamma, Week 2): −0.21 | d (Cohen's d, prediction of agomelatine outcome) ([2]; REO, Multiscale Entropy, lower gamma, Week 4): 0.05 | MADRS change, high vs low Pz low-gamma sample entropy ([2]; high = z≥0.27, full study sample, all weeks, FIG. 2C): strong and statistically significant prediction of treatment outcome across all weeks | performance on a trail making task [3]: superior to an SSRI | effect on circadian rhythm (circadian rhythm): phase advance circadian rhythm
